Patent publication US20110118337A1, “Method of Using Compositions Comprising MIR-192 and/or MIR-215 for the Treatment of Cancer” (Merck Sharp & Dohme Corp., priority 2008, published 2011)

Key:
HCT116DICER^ex5 cells [1] = assay: Phospho-histone H3 immunostaining, flow cytometry (M-phase), nocodazole-treated; assay type: cell-based, human; settings: phospho-histone-H3 positive, 10 nM duplex
Procedure: (§1) At 48 hours post transfection, cells were left untreated, treated with nocodazole (100 ng/mL, Sigma-Aldrich), or treated with aphidicolin (2 μg/mL, Sigma-Aldrich) for an additional 18 hours before harvesting. The cells were then trypsinized, collected, fixed and stained with a propidium iodide solution. BrdU-labeling was performed according to the manufacturer's instructions (BD-Pharmigen). For phospho-histone H3 analysis, cells were fixed and permeabilized with IPF buffer (100 mM PIPES pH 6.8, 10 mM EDTA, 1 mM MgCl2, 0.2% Triton X-100, 4% formaldehyde) and stained with propidium iodide and anti-phospho-histone H3 antibody conjugated to Alexa-488 (Cell Signaling Technology). The cells were analyzed using a FACSCalibur flow cytometer (Beacton Dickinson) and FlowJo software (Tree Star, Inc.).
Nocodazole-treated mock transfected and miR-192 transfected cells were also permeabilized, immunostained for phospho-histone-H3 (a mitotic marker) and sorted for DNA content and the respective accumulation of positively stained cells in the mitotic compartment was quantified. It was determined that the percentage of cells in M-phase in the mock transfected population was 40.9%, whereas the percentage of cells in M-phase in the miR-192 transfected population was 4.9%.

HCT116DICER^ex5 cells [2] = assay: BrdU pulse-labeling, flow cytometry (S-phase); assay type: cell-based, human; settings: BrdU pulse-labeled; 10 nM duplex
Procedure: as §1
The transfected cells were also pulse-labeled with the thymidine analog 5-bromo-deoxyuridine (BrdU) to assay for defects in DNA synthesis. Using flow cytometry and it was determined that the percentage of cells in S-phase in the mock transfected population was 37.3%, whereas the percentage of cells in S-phase in the miR-192 transfected population was 11.9%.

With “miR-192: Synthetic duplex mimetic of miR-192, guide CUGACCUAUGAAUUGACAGCC (SEQ ID NO:1), passenger SEQ ID NO:7 (sense CUGUCAAUUCAUCGGUCUGAU; listed as RNA, chemistry not given here; listed as Homo sapiens)” the “percentage of cells in M-phase” value (HCT116DICER^ex5 cells [1]) was 4.9% and the “percentage of cells in S-phase” value (HCT116DICER^ex5 cells [2]) was 11.9%.
